{"source": "patent US6489365B1", "about": "“Amidine derivatives, the preparation and use thereof as medicaments with Itb4 antagonistic effect” (Boehringer Ingelheim KG, priority 1992, dated 2002)", "key": {"[1]": {"biological_target": "T1, LTB4 receptors (Homo sapiens, UniProt Q15722)", "T1 construct": "vital U937 cells (differentiated human monocytary cell line with naturally expressed LTB4 receptors); endogenous in cells; host or cells: U937 cells (differentiated, intact/vital)", "T1 sequence (Q15722 whole entry)": "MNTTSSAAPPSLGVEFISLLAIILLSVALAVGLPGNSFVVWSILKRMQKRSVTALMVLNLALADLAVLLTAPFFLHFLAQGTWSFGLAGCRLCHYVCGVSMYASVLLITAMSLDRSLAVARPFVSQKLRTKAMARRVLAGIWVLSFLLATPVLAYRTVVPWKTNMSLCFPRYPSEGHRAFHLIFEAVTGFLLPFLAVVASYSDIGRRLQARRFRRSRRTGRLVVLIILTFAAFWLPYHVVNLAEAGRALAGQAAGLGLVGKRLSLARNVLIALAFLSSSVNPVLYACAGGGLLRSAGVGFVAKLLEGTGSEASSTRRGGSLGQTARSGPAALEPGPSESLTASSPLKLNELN", "test": "U937 receptor binding test/LTB4", "conditions": "3H-LTB4 (3 nM), vital U937 cells, incubation 2 hours at 0°C; read-out: Receptor binding U937-8 Ki", "procedure": "a) U937—Receptor Binding Test/LTB4\nThe binding of ^3H-LTB4 (3 nM) to vital U937 cells (differentiated human monocytary cell line with naturally expressed LTB4 receptors) is inhibited, in dosage dependent manner, by an increasing concentration of the test substance (incubation 2 hours at 0°C.). After the unbound ^3H-LTB4 has been separated off by membrane filtration, the radioactivity of the bound LTB4 receptor/^3H-LTB4 complex is quantified by scintillation measurement. The affinity (inhibition constant Kj) was determined by repeated adaptation of a displacement curve to the measurements (program: “coupled mass equilibria” on Wang computer)."}, "[2]": {"system": "neutrophilic granulocytes", "test": "LTB4-induced aggregation of neutrophilic granulocytes in the guinea-pig (in vitro)", "type": "cell-based", "conditions": "Cavia porcellus, 2 min, inhibition 2 minutes after incubation with test substance in polydiol/DMSO, read-out: LTB4-induced neutroph. Aggr. EC50", "procedure": "b) Aggregation of Neutrophilic Granulocytes in the Guinea-pig\nIndicated by LTB4 in vitro (increase in light transmission in the aggregometer, recorded in mm; each experiment repeated twice): inhibition 2 minutes after incubation with test substance in polydiol/DMSO."}, "[3]": {"system": "LTB4-induced neutrophilic influx in the mouse ear", "test": "Leukotrien-B4-induced accumulation of neutrophiles in the mouse ear", "type": "in vivo", "conditions": "po, read-out: LTB4-induced neutroph. Accum. p.o. ED50", "procedure": "c) Leukotrien-B4-indicated Accumulation of Neutrophiles in the Mouse Ear\nEvaluation of the neutrophilic influx by photometric measurement (mOD/min) of the myeloperoxidase activity (Bradley et al.: J. Invest. Dermatol. 78, 206, 1982) in the skin of the ear. Increase 6 hours after topical treatment of the left ear with LTB4 (250 ng on each side) compared with the right ear (2×5 μl acetone as solvent).\nSubstance administered by oral route in 1% tylose 300, 30 minutes before the LTB4 stimularion."}}}
{"compound": "CCCc1c(OC)cccc1OCCCCOc1ccc(C(=N)N)cc1", "values": [{"measurement": "Ki", "setting": "[1]", "result": 12, "unit": "nM"}, {"measurement": "EC50", "setting": "[2]", "result": 1900, "unit": "nM"}, {"measurement": "ED50", "setting": "[3]", "result": 0.8, "unit": "mg/kg"}]}
